Each block holds one compound with its values, some of them ahead of it.
Assays:
Heme Oxygenase 1 (HO-1) = assay: HO-1 mRNA expression in dermal fibroblasts (qPCR); format: cell-based, human; details: for HO-1 mRNA expression relative to non-treated control cells: dermal fibroblasts; for Effect on OxPAPC-mediated HO-1 induction: fibroblasts incubated with the ROS scavenger prior to exposure to OxPAPC
Description: Neonatal Human Epidermal Keratinocytes (KC) derived from foreskin are obtained from Clonetics (San Diego, Calif.). Keratinocytes are cultured in keratinocyte growth medium (KGM) up to the fifth passage. Human neonatal skin fibroblasts (FB) are obtained from Cascade Biologics (Portland, Oreg.) and grown in Dulbecco's modified Eagle's medium, Gibco (Gaithersburg, Md.) supplemented with 10% fetal calf serum (FCS) and penicillin/streptomycin (1000 U per ml, Gibco) to sub-confluence.
RNA is isolated using Trizol reagent (Invitrogen). Nine hundred ng of total RNA are reverse-transcribed with murine leukemia virus reverse transcriptase (MuLV, Applied Biosystems, Foster City, Calif.) and oligo(dT) primers. The following forward (F) and reverse (R) primers are used: HO-1: F, 5′-[…]-3′; R, 5′-[…]-3′; B2M; F 5′-[…]-3′R,5′-[…]-3′ qPCR is performed using LightCycler technology and the Fast Start SYBR Green I kit (both Roche Applied Science, Basel, Switzerland). In all assays, cDNA is amplified using a standardized program (10-min denaturing step; 55 cycles of 5 s at 95° C., […], and 15 s at 72° C.; melting point analysis in 0.1° C. steps). Quantification of target gene expression is performed using a mathematical model by Pfaffl (Pfaffl, Nucleic Acids Res. 29, e45 (2001)). The expression of the target molecule is normalized to the expression of β-2 microglobulin.
PAPC is oxidized by exposure of the dry lipid to air for 72 h to generate OxPAPC. PAPC dried to a thin film on a glass support is irradiated with UVA-1 with 160 J/cm^2 to generate UV-PAPC. For treatment with singlet oxygen all lipids are vortexed in PBS containing 20 μM Rose Bengal and irradiated with 10 J/cm^2 UVA-1 (FIGS. 5 A,B) or under a commercial 35 W halogen lamp at a distance of 30 cm for 30 minutes (FIG. 5 C). The extent of oxidation was monitored by ESI-MS as described previously (Watson, J. Biol. Chem. 272, 13597-13607 (1997)). The UVA-1 irradiated lipids are solubilized, emulsified or suspended in the respective growth medium before skin cells or the skin equivalent are treated.
Human neonatal skin fibroblasts (FB) are obtained from Cascade Biologics (Portland, Oreg.) and grown in Dulbecco's modified Eagle's medium, Gibco (Gaithersburg, Md.) supplemented with 10% fetal calf serum (FCS) and penicillin/streptomycin (1000 U per ml, Gibco) to sub-confluence.
Fibroblasts are treated with autoxidized PAPC, UVA-1 treated PAPC or UVA-1 untreated PAPC (100 μg/ml) as described in Example 1. Total RNA is isolated after 4 hours from treated cells and untreated control cells.
Relative expression of HO-1 mRNA in dermal fibroblasts is determined 4 h after stimulation with lipids or extracts as specified above using quantitative real-time PCR (qPCR). Normalization is standardized by comparison to the expression of the housekeeping gene beta-2-microglobulin (B2M) as described in Example 1.
Fibroblasts are treated with lipids or extract as described in Example 1 relating to treatment with oxPAPC. Total RNA is isolated 4 h after stimulation with 100 μg/ml of lipids or extract.

HO-1 = details: literature (Ishikawa 1997); cited from earlier work
[1] = TLC fractions of OxPAPC and synthetic phospholipids (FIG. 2)
[2] = lipid not irradiated with UVA-1 in the presence of RB (FIG. 5B)

Compound: CCCCCCCCCCCCCC(=O)OC[C@H](COP(=O)([O-])OCC[N+](C)(C)C)OC(=O)CCCCCCCCCCCCC [DMPC, di-myristoyl-phosphorylcholine]
HO-1 mRNA expression relative to non-treated control cells (Heme Oxygenase 1 (HO-1); [1]): failed to induce HO-1 expression

Effect on OxPAPC-mediated HO-1 induction (Heme Oxygenase 1 (HO-1)): did not significantly reduce
Compound: CC1=C(/C=C/C(C)=C/C=C/C(C)=C/C=C/C=C(C)/C=C/C=C(C)/C=C/C2=C(C)CCCC2(C)C)C(C)(C)CCC1 [β-carotene]

Compound: CCCCCCCCCCCCCCCC(=O)OC[C@H](COP(=O)(O)OCC[N+](C)(C)C)OC(=O)CCCC=O [POVPC, 1-palmitoyl-2-(5-oxovaleroyl)-sn-glycero-3-phosphorylcholine]
HO-1 mRNA expression relative to non-treated control cells (Heme Oxygenase 1 (HO-1); [1]): failed to induce HO-1 expression

Compound: CCCCC/C=C\C/C=C\CCCCCCCC(=O)O[C@H](COC(=O)CCCCCCCCCCCCCCC)COP(=O)([O-])OCC[N+](C)(C)C [PLPC, 1-palmitoyl-2-linoleyl-sn-3-glycerophosphorylcholine]
HO-1 mRNA expression relative to non-treated control cells (Heme Oxygenase 1 (HO-1); [2]): did not induce Heme Oxygenase 1 (HO-1) mRNA expression

Effect on OxPAPC-mediated HO-1 induction (Heme Oxygenase 1 (HO-1)): did not significantly reduce
Compound: vitamin E

Compound: CCCCCCCCCCCCCCCC(=O)OC[C@@H](O)COP(=O)([O-])OCC[N+](C)(C)C [LysoPC, 1-palmitoyl-2-lyso-sn-glycero-3-phosphorylcholine]
HO-1 mRNA expression relative to non-treated control cells (Heme Oxygenase 1 (HO-1); [1]): failed to induce HO-1 expression

Effect on OxPAPC-mediated HO-1 induction (Heme Oxygenase 1 (HO-1)): did not significantly reduce
Compound: O=C1O[C@H]([C@@H](O)CO)C(O)=C1O [vitamin C]

Compound: c1ccc(P(c2ccccc2)c2ccccc2)cc1 [TPP, triphenylphosphine]
Effect on capacity of OxPAPC to induce HO-1 expression (Heme Oxygenase 1 (HO-1); OxPAPC treated with triphenylphosphine (not shown)): only slightly reduced

Compound: CCCCCCCC/C=C\CCCCCCCC(=O)O[C@H](COC(=O)CCCCCCCCCCCCCCC)COP(=O)([O-])OCC[N+](C)(C)C [POPC, 1-palmitoyl-2-oleoyl-sn-3-glycerophosphorylcholine]
HO-1 mRNA expression relative to non-treated control cells (Heme Oxygenase 1 (HO-1); [2]): did not induce Heme Oxygenase 1 (HO-1) mRNA expression

Compound: 1-palmitoyl-2-(epoxyisoprostane E2)-sn-glycero-3-phosphorylcholine [PEIPC]
HO-1 expression (HO-1): strong inducer of HO-1 expression

Compound: CCCCCCCCCCCCCCCC(=O)OC[C@H](COP(=O)([O-])OCC[N+](C)(C)C)OC(=O)CCCC(=O)O [PGPC, 1-palmitoyl-2-glutaroyl-sn-glycero-3-phosphorylcholine]
HO-1 mRNA expression relative to non-treated control cells (Heme Oxygenase 1 (HO-1); [1]): failed to induce HO-1 expression

From US20100119613A1, “PROCESS TO ACTIVATE EXTRACTS DERIVED FROM LIVING ORGANISMS USING LONG WAVE UV IRRADIATION AND COMPOSITIONS COMPRISING SAID ACTIVATED EXTRACT” (Medizinische Universitat Wien, priority 2007, published 2010)
